Results: publication PMC12304826, “Redirecting the Peptide Cleavage Causes Protease Inactivation” (Angewandte Chemie (International Ed. in English), 2025)
Read-outs that look alike come from different tables or passages of the source.

Key:
human cathepsin S = target: T1, human cathepsin S (Homo sapiens, UniProt P25774); assay: Cathepsin S inhibition assay (Cbz-Phe-Arg-AMC); type: biochemical
T1 construct: purchased Enzo Life Sciences, Lörrach, Germany
Description: 1. Enzyme Inhibition Assays and Kinetic Data of Inhibition of Cathepsins B, L, K and S General. Human cathepsins were assayed either fluorimetrically or spectrophotometrically as noted below. The 10 mM inhibitor solutions were prepared in DMSO. The final concentration of DMSO in all assays was 2%. Non-linear regressions were conducted with GraFit 5. Residual cathepsin activity at an inhibitor concentration of 20 µM was determined from duplicate measurements based on the product formation after 60 min. Concentration dependent measurements were performed in duplicate measurements with five different inhibitor concentrations when the residual cathepsin activity in the presence of 20 µM inhibitor was below 70% (cathepsin B) or below 50% (cathepsins cathepsins L, K, and S). Progress curves were monitored for 60 min. First-order rate constants, kobs, were determined by non-linear regression following the equation [P] = vi × (1 – exp(-kobs × t))/kobs + d, where [P] is the product concentration, vi is the initial product formation rate, kobs is the observed first-order rate constant, and d is the offset. Mean values of kobs were plotted versus corresponding inhibitor concentrations [I], and second-order rate constants of inactivation, kinac/Ki, were obtained by linear regression. The equation kobs/[I] = (kinac/Ki)/(1 + [S]/Km) was used, where [S] is the substrate concentration and Km is the Michaelis-Menten constant. Standard errors (SE) refer to the linear regression. […]
methyl-coumarin (AMC)-based fluorogenic substrate Cbz-Leu-Arg-AMC was prepared in DMSO. The final concentration of the substrate was 40 μM (= 13.3 Km). When using the spectrofluorometer, into a cuvette containing 960 μL assay buffer, inhibitor solution and DMSO in a total volume of 16 μL, and 4 […]
When using the plate reader, into a well containing 192 µL assay buffer, inhibitor solution and DMSO in a total volume of 3.2 µL and 0.8 µL of the substrate solution were added and mixed. The reaction was initiated by adding 4 µL of the cathepsin K solution.
Cathepsin S inhibition assay.[2] Human recombinant cathepsin S (Enzo Life Sciences, Lörrach, […]
nm and for emission 440 nm. The reactions were followed at 25 °C. Assay buffer was 100 mM sodium phosphate buffer pH 6.0, 100 mM NaCl, 5 mM EDTA, and 0.01% Brij 35. A stock solution of human cathepsin S of 70 μg/mL in 100 mM MES buffer, pH 6.5, 1 mM EDTA, 50 mM L-cysteine, 10 mM DTT, 0.5% Triton X-100 and 30% glycerol was diluted 1:100 with a 50 mM sodium phosphate buffer pH 6.5, 50 mM NaCl, 2 mM EDTA, 0.01% Triton X-100 and 5 mM DTT and incubated for 60 min at 37 °C. A 10 mM stock solution of the fluorogenic substrate Cbz-Phe-Arg-AMC was prepared in DMSO.
The assay was performed with a final substrate concentration of 40 µM (= 0.74 Km). When using the spectrofluorometer, into a cuvette containing 920 μL assay buffer, inhibitor solution and DMSO in a total volume of 16 μL, and 4 μL of the substrate solution were added and mixed. The reaction was initiated by adding 60 μL of the cathepsin S solution. When using the plate reader, into a well containing 188 µL assay buffer, inhibitor solution and DMSO in a total volume of 3.2 µL and 0.8 µL of the substrate solution were added and mixed. The reaction was initiated by adding […] of the cathepsin S solution.

human cathepsin B = target: T2, human cathepsin B (Homo sapiens, UniProt P07858); assay: Cathepsin B inhibition assay (chromogenic substrate Cbz-Arg-Arg-pNA); type: biochemical; conditions: for remaining activity at 20 µM: 20 µM inhibitor, duplicate measurements, product formation after 60 min, read-out: r.a. (%), residual enzymatic activity of cathepsin B; for kinact/KI: 1 h, pH 6, five inhibitor concentrations, duplicates, 60 min progress curves, 500 µM Cbz-Arg-Arg-pNA, pH 6.0, 37 °C, read-out: k inac/K i ± SE, second-order rate constant of enzyme inactivation, cathepsin B
T2 construct: purchased Calbiochem, Darmstadt, Germany
Description: To get a first insight into the interaction with human cathepsin B, the inhibition of the enzyme‐catalyzed cleavage of a chromogenic peptide substrate was examined. […] Active compounds were subjected to kinetic measurements at five different concentrations (Tables 1 and S1).
Figure 1 Cathepsin B‐catalyzed hydrolysis of 500 µM (= 0.45 K m) of Cbz‐Arg‐Arg‐p‐nitroanilide in the absence (black) or presence of increasing concentrations of carbamate 4 (from top to bottom: 0.4, 0.8, 1.2, 1.6, and 2.0 µM).
1. Enzyme Inhibition Assays and Kinetic Data of Inhibition of Cathepsins B, L, K and S General. Human cathepsins were assayed either fluorimetrically or spectrophotometrically as noted below. The 10 mM inhibitor solutions were prepared in DMSO. The final concentration of DMSO in all assays was 2%. Non-linear regressions were conducted with GraFit 5. Residual cathepsin activity at an inhibitor concentration of 20 µM was determined from duplicate measurements based on the product formation after 60 min. Concentration dependent measurements were performed in duplicate measurements with five different inhibitor concentrations when the residual cathepsin activity in the presence of 20 µM inhibitor was below 70% (cathepsin B) or below 50% (cathepsins cathepsins L, K, and S). Progress curves were monitored for 60 min. First-order rate constants, kobs, were determined by non-linear regression following the equation [P] = vi × (1 – exp(-kobs × t))/kobs + d, where [P] is the product concentration, vi is the initial product formation rate, kobs is the observed first-order rate constant, and d is the offset. Mean values of kobs were plotted versus corresponding inhibitor concentrations [I], and second-order rate constants of inactivation, kinac/Ki, were obtained by linear regression. The equation kobs/[I] = (kinac/Ki)/(1 + [S]/Km) was used, where [S] is the substrate concentration and Km is the Michaelis-Menten constant. Standard errors (SE) refer to the linear regression.
Cathepsin B inhibition assay.[1] Human isolated cathepsin B (Calbiochem, Darmstadt, Germany) was assayed spectrophotometrically on a Cary 50 or 100 Bio, Varian, at 405 nm. The reactions were followed at 37 °C. Assay buffer was 100 mM sodium phosphate buffer pH 6.0, 100 mM NaCl, 5 mM EDTA, 0.01% Brij 35. A stock solution of human cathepsin B of 1.81 mg/mL or 0.47 mg/mL in 20 mM sodium acetate buffer pH 5.0, 1 mM ethylenediaminetetraactic acid (EDTA) was diluted 1:500 with assay buffer containing 5 mM dithiothreitol (DTT) and incubated for 30 min at 37 °C. A 100 mM stock solution of the para-nitroaniline (pNA)-based chromogenic substrate Cbz-Arg-Arg-pNA was prepared in DMSO.
The final concentration of the substrate was 500 μM (= 0.45 Km). Into a cuvette containing 960 μL assay buffer, inhibitor solution and DMSO in a total volume of 15 μL, and 5 μL of the substrate solution were added and mixed. The reaction was initiated by adding 20 μL of the enzyme solution. […]

[1] = 20 µM inhibitor, 60 min, read-out: Residual activity @ 20 µM (%) Cat S

T1 sequence (P25774 115-331): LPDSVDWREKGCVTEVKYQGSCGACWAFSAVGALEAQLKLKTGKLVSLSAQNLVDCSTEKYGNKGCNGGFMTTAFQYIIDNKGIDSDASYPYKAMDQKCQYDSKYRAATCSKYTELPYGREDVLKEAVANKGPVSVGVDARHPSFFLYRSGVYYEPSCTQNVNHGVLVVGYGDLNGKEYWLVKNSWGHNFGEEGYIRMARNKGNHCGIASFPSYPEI

SMILES	remaining activity at 20 µM (human cathepsin S; inhibitor not soluble at 20 µM, calculated for 20 µM from IC50 at two lower concentrations, read-out: Residual activity @ 20 µM (%) Cat S, approximated [e])	remaining activity at 20 µM (human cathepsin B)	kinact/KI (human cathepsin B)	remaining activity at 20 µM (human cathepsin S; [1])
CC(C)CC(NC(=O)Oc1ccc(NC(=O)C(c2ccccc2)c2ccccc2)c(Cl)c1)C(=O)NC(Cc1ccccc1)C(=O)O (stereo not drawn) [Compound 29]	63%	≤ 2%	11300 ± 600 M⁻¹ s⁻¹	–
CC(C)C[C@H](NC(=O)Oc1cccc(Cl)c1)C(=O)N1CCC[C@H]1C(=O)O [Compound 23]	–	≤ 2%	2760 ± 50 M⁻¹ s⁻¹	89%
CC(C)CC(NC(=O)Oc1ccc(NC(=O)C(c2ccccc2)c2ccccc2)c(Br)c1)C(=O)N1CCCC1C(=O)O (stereo not drawn) [Compound 27]	–	≤ 2%	6000 ± 100 M⁻¹ s⁻¹	60%
